Assays:
Assay type in all cases: in vivo
[1] = test system: Diabrotica balteata (Corn Root Worm); assay: Activity against Diabrotica balteata, sprayed maize sprouts; details: 96 h, application rate of 200 ppm, larvae on maize sprouts, 4 days after infestation
Protocol: Example B2: Activity Against Diabrotica balteata (Corn Root Worm)
Maize sprouts, placed on an agar layer in 24-well microtiter plates were treated with aqueous test solutions prepared from 10′000 ppm DMSO stock solutions by spraying. After drying, the plates were infested with […] (6 to 10 per well). The samples were assessed for mortality 4 days after infestation.

[2] = test system: Euschistus heros (Neotropical Brown Stink Bug); assay: Activity against Euschistus heros, sprayed soybean leaf; details: 120 h, application rate of 200 ppm, N-2 nymphs on soybean leaf, 5 days after infestation
Protocol: Example B3: Activity Against Euschistus heros (Neotropical Brown Stink Bug)
Soybean leaf on agar in 24-well microtiter plates were sprayed with aqueous test solutions prepared from 10′000 ppm DMSO stock solutions. After drying the leaf were infested with N-2 nymphs. The samples were assessed for mortality 5 days after infestation.

[3] = test system: Myzus persicae (Green Peach Aphid); assay: Activity against Myzus persicae, sprayed sunflower leaf discs; details: foliar, 144 h, application rate of 200 ppm, aphid population of mixed ages on sunflower leaf discs, 6 days after infestation
Protocol: Example B5: Activity Against Myzus persicae (Green Peach Aphid)
(§1) Sunflower leaf discs were placed on agar in a 24-well microtiter plate and sprayed with aqueous test solutions prepared from 10′000 ppm DMSO stock solutions. After drying, the leaf discs were infested with an aphid population of mixed ages. The samples were assessed for mortality 6 days after infestation.

[4] = test system: Myzus persicae (Green Peach Aphid); assay: Activity against Myzus persicae, roots of infested pea seedlings in test solution; details: 144 h, test rate of 24 ppm, 6 days
Protocol: Example B6: Activity Against Myzus persicae (Green Peach Aphid)
Roots of pea seedlings infested with an aphid population of mixed ages were placed directly in the aqueous test solutions prepared from 10′000 DMSO stock solutions. The samples were assessed for mortality 6 days after placing seedlings in test solutions.

[5] = test system: Plutella xylostella (Diamond Back Moth); assay: Activity against Plutella xylostella, treated artificial diet; details: 120 h, application rate of 200 ppm, L2 larvae on artificial diet, 5 days after infestation, read-out: effect in at least one of the two categories (mortality or growth inhibition)
Protocol: Example B8: Activity Against Plutella xylostella (Diamond Back Moth)
24-well microtiter plates with artificial diet were treated with aqueous test solutions prepared from 10′000 ppm DMSO stock solutions by pipetting. After drying, the plates were infested with L2 larvae (10 to 15 per well). The samples were assessed for mortality and growth inhibition in comparison to untreated samples 5 days after infestation.

[6] = test system: Spodoptera littoralis (Egyptian Cotton Leaf Worm); assay: Activity against Spodoptera littoralis, sprayed cotton leaf discs; details: foliar, 72 h, application rate of 200 ppm, L1 larvae on cotton leaf discs, 3 days after infestation, read-out: control (at least one of mortality, anti-feedant effect, growth inhibition)
Protocol: Example B9: Activity Against Spodoptera littoralis (Egyptian Cotton Leaf Worm)
Cotton leaf discs were placed on agar in 24-well microtiter plates and sprayed with aqueous test solutions prepared from 10′000 ppm DMSO stock solutions. After drying the leaf discs were infested with five L1 larvae. The samples were assessed for mortality, anti-feedant effect, and growth inhibition in comparison to untreated samples 3 days after infestation. Control of Spodoptera littoralis by a test sample is when at least one of mortality, anti-feedant effect, and growth inhibition is higher than the untreated sample.

[7] = test system: Spodoptera littoralis (Egyptian Cotton Leaf Worm); assay: Activity against Spodoptera littoralis, compound in agar taken up by lettuce; details: 144 h, test rate of 12.5 ppm, lettuce root uptake, 6 days after infestation, read-out: effect in at least one of the three categories (mortality, anti-feedancy, or growth inhibition)
Source text: Example B10: Activity Against Spodoptera littoralis (Egyptian Cotton Leaf Worm)
(§2) Test compounds were applied by pipette from 10′000 ppm DMSO stock solutions into 24-well plates and mixed with agar. Lettuce seeds were placed on the agar and the multi well plate was closed by another plate which contains also agar. After 7 days the roots have absorbed the compound and the lettuce has grown into the lid plate. The lettuce leafs were now cut off into the lid plate. Spodoptera eggs were pipetted through a plastic stencil on a humid gel blotting paper and the plate closed with it. The samples were assessed for mortality, anti-feedant effect and growth inhibition in comparison to untreated samples 6 days after infestation.

[8] = test system: Spodoptera littoralis (Egyptian Cotton Leaf Worm); assay: Activity against Spodoptera littoralis, systemic activity; details: 144 h, test rate of 12.5 ppm, in agar, lettuce root uptake, 6 days after infestation
Source text: Example B11: Activity Against Spodoptera littoralis (Egyptian Cotton Leaf Worm), Systemic Activity
as §2, with “mortality” for “mortality, anti-feedant effect and growth inhibition in comparison to untreated samples”

[9] = test system: Aedes aegypti (Yellow Fever Mosquito); assay: whole plant or invertebrate; details: 48 h, test rate of 5 ppm, L2 larvae in 96-well plates, incubation period of 2 days, read-out: effect in at least one of the two categories (mortality or growth inhibition)
Protocol: Example B14: Activity Against Aedes aegypti (Yellow Fever Mosquito)
10 to 15 Aedes larvae (L2) together with a nutrition mixture were placed in 96-well microtiter plates. Test compounds were pipetted into the wells. After an incubation period of 2 days insects were assessed for mortality and growth inhibition.

[10] = test system: Frankliniella occidentalis (Western Flower Thrips); assay: Activity against Frankliniella occidentalis, sprayed sunflower leaf discs; details: foliar, 168 h, application rate of 200 ppm, population of mixed ages on sunflower leaf discs, 7 days after infestation
Protocol: Example B4: Activity Against Frankliniella occidentalis (Western Flower Thrips)
as §1, with “in” for “in a”, “plates” for “plate”, “[…]” for “10′000 ppm”, “drying” for “drying,”, “a Frankliniella” for “an aphid”, “7” for “6”

[11] = test system: Bemisia tabaci (Cotton White Fly); assay: Activity against Bemisia tabaci, sprayed cotton leaf discs; details: foliar, 144 h, application rate of 200 ppm, adult white flies on cotton leaf discs, 6 days after incubation
Protocol: Example B1: Activity Against Bemisia tabaci (Cotton White Fly)
Cotton leaf discs were placed on agar in 24-well microtiter plates and sprayed with aqueous test solutions prepared from 10′000 ppm DMSO stock solutions. After drying the leaf discs were infested with adult white flies. The samples were checked for mortality 6 days after incubation. […] A35, A36 and A47. A1. A2, A3, A8, A10, A14 and A12.

[12] = test system: Thrips tabaci (Onion Thrips); assay: Activity against Thrips tabaci, feeding/contact activity; details: foliar, 144 h, application rate of 200 ppm, thrips population of mixed ages on sunflower leaf discs, 6 days after infestation
Protocol: Example B13: Activity Against Thrips tabaci (Onion Thrips) Feeding/Contact Activity
as §1, with “in” for “in a”, “plates” for “plate”, “drying” for “drying,”, “a thrips” for “an aphid”

[13] = test system: Myzus persicae (Green Peach Aphid); assay: Activity against Myzus persicae, sucrose solution under Parafilm; details: 120 h, test rate of 12 ppm, mixed with sucrose solution, 5 days after infestation
Source text: Example B7: Activity Against Myzus persicae (Green Peach Aphid)
Test compounds from 10′000 ppm DMSO stock solutions were applied by pipette into 24-well microtiter plates and mixed with sucrose solution. The plates were closed with a stretched Parafilm. A plastic stencil with 24 holes was placed onto the plate and infested pea seedlings were placed directly on the Parafilm. The infested plate was closed with a gel blotting paper and another plastic stencil and then turned upside down. The samples were assessed for mortality 5 days after infestation. […] A30 and A32.

CCS(=O)(=O)c1cc(C(F)(F)F)ccc1-c1nc2cc(C(F)(F)F)n(C)c(=O)c2n1C [Compound A73, 2-[2-ethylsulfonyl-4-(trifluoromethyl)phenyl]-3,5-dimethyl-6-(trifluoromethyl)imidazo[4,5-c]pyridin-4-one]
≥ 80%: mortality at 200 ppm [1] | mortality at 200 ppm [2] | mortality at 200 ppm [3] | mortality at 24 ppm [4] | percent effect (mortality or growth inhibition) at 200 ppm [5] | percent control (mortality, anti-feedant effect or growth inhibition) at 200 ppm [6] | percent control (mortality, anti-feedancy or growth inhibition) at 12.5 ppm [7] | mortality at 12.5 ppm [8] | percent effect (mortality or growth inhibition) at 5 ppm [9]

CCS(=O)(=O)c1cc(C2CC2)cnc1-c1nc2cc(C(F)(F)F)n(C)c(=O)c2n1C [Compound A23]
≥ 80%: mortality at 200 ppm [1] | mortality at 200 ppm [2] | mortality at 200 ppm [10] | mortality at 200 ppm [3] | mortality at 24 ppm [4] | percent effect (mortality or growth inhibition) at 200 ppm [5] | percent control (mortality, anti-feedant effect or growth inhibition) at 200 ppm [6] | mortality at 12.5 ppm [8] | percent effect (mortality or growth inhibition) at 5 ppm [9]

CCn1c(C(F)(F)F)cc2nc(-c3ncc(-c4ccc(C(F)(F)F)cc4)cc3S(=O)(=O)CC)n(C)c2c1=O [Compound A35, 5-ethyl-2-[3-ethylsulfonyl-5-[4-(trifluoromethyl)phenyl]-2-pyridyl]-3-methyl-6-(trifluoromethyl)imidazo[4,5-c]pyridin-4-one]
≥ 80%: mortality at 200 ppm [11] | mortality at 200 ppm [1] | mortality at 200 ppm [2] | mortality at 200 ppm [3] | percent effect (mortality or growth inhibition) at 200 ppm [5] | percent control (mortality, anti-feedant effect or growth inhibition) at 200 ppm [6] | mortality at 12.5 ppm [8]

CCn1c(C(F)(F)F)cc2nc(-c3ncc(C(F)(F)F)cc3S(=O)(=O)CC)n(C)c2c1=O [Compound A2]
≥ 80%: mortality at 200 ppm [11] | mortality at 200 ppm [1] | mortality at 200 ppm [2] | mortality at 200 ppm [3] | percent effect (mortality or growth inhibition) at 200 ppm [5] | percent control (mortality, anti-feedant effect or growth inhibition) at 200 ppm [6] | percent effect (mortality or growth inhibition) at 5 ppm [9]

CCS(=O)(=O)c1cc(C(F)(F)C(F)(F)F)cnc1-c1nc2cc(C(F)(F)F)n(C)c(=O)c2n1C [Compound A46, 2-[3-ethylsulfonyl-5-(1,1,2,2,2-pentafluoroethyl)-2-pyridyl]-3,5-dimethyl-6-(trifluoromethyl)imidazo[4,5-c]pyridin-4-one]
≥ 80%: mortality at 200 ppm [1] | mortality at 200 ppm [2] | mortality at 200 ppm [10] | mortality at 200 ppm [3] | percent effect (mortality or growth inhibition) at 200 ppm [5] | percent control (mortality, anti-feedant effect or growth inhibition) at 200 ppm [6] | percent control (mortality, anti-feedancy or growth inhibition) at 12.5 ppm [7] | mortality at 12.5 ppm [8] | mortality at 200 ppm [12] | percent effect (mortality or growth inhibition) at 5 ppm [9]

CCn1c(C(F)(F)F)cc2nc(-c3ncc(Br)cc3S(=O)(=O)CC)n(C)c2c1=O [Compound A31, 2-(5-bromo-3-ethylsulfonyl-2-pyridyl)-5-ethyl-3-methyl-6-(trifluoromethyl)imidazo[4,5-c]pyridin-4-one]
≥ 80%: mortality at 200 ppm [11] | mortality at 200 ppm [1] | mortality at 200 ppm [2] | mortality at 200 ppm [3] | percent effect (mortality or growth inhibition) at 200 ppm [5] | percent control (mortality, anti-feedant effect or growth inhibition) at 200 ppm [6] | percent control (mortality, anti-feedancy or growth inhibition) at 12.5 ppm [7] | mortality at 12.5 ppm [8] | percent effect (mortality or growth inhibition) at 5 ppm [9]

CCS(=O)(=O)c1cc(C(F)(F)F)cnc1-c1nc2cc(C(F)(F)F)n(Cc3ccccc3)c(=O)c2n1C [Compound A4, 5-benzyl-2-[3-ethylsulfonyl-5-(trifluoromethyl)-2-pyridyl]-3-methyl-6-(trifluoromethyl)imidazo[4,5-c]pyridin-4-one]
≥ 80%: mortality at 200 ppm [1] | mortality at 12 ppm [13] | percent effect (mortality or growth inhibition) at 200 ppm [5] | percent control (mortality, anti-feedant effect or growth inhibition) at 200 ppm [6]

CCS(=O)(=O)c1cc(C(F)(F)F)cnc1-c1nc2cc(C(F)(F)F)c(=O)n(C)c2n1C [Compound B2, 2-[3-ethylsulfonyl-5-(trifluoromethyl)-2-pyridyl]-3,4-dimethyl-6-(trifluoromethyl)imidazo[4,5-b]pyridin-5-one]
≥ 80%: mortality at 200 ppm [11] | mortality at 200 ppm [1] | mortality at 200 ppm [2] | mortality at 200 ppm [3] | mortality at 24 ppm [4] | mortality at 12 ppm [13]

CCSc1cc(C(F)(F)F)cnc1-c1nc2cc(C(F)(F)F)c(=O)n(C)c2n1C [Compound B1, 2-[3-ethylsulfanyl-5-(trifluoromethyl)-2-pyridyl]-3,4-dimethyl-6-(trifluoromethyl)imidazo[4,5-b]pyridin-5-one]
≥ 80%: mortality at 200 ppm [3] | mortality at 12 ppm [13]

Reference: patent US10450311B2, “Pesticidally active heterocyclic derivatives with sulphur containing substituents” (Syngenta Participations AG, priority 2014, dated 2019)
